# Measurements taken from patent US8158656B2, “2-indolinone derivatives as multi-target protein kinase inhibitors and histone deacetylase inhibitors” (Shenzhen Chipscreen Biosciences Ltd., priority 2008, dated 2012).
# Legend:
# [1] = test system: Class I HDAC; assay: P21 reporter assay in HeLa cells; type: cell-based, human; details: relative to CS055 at 3 μM
# Protocol: (§1) HDAC subtype selectivity inhibition assay of tested compounds was carried out by several reporter gene assays experiments. Briefly, HeLa cells were seeded in 96-well plates the day before transfection to give a confluence of 50-80%. Cells were transfected with one of reporter gene plasmid containing a promoter sequence or response element upstream of a luciferase gene construct using FuGene6 transfection reagent according to the manufacturer's instruction (Roche). The promoters or response elements including p21-promoter, gdf11-promoter, MEF-binding element (MEF2), Nur77-promoter were fused upstream to the luciferase gene reporter construct. For normalizing the transfection efficiency, a GFP expression plasmid was cotransfected. Cells were allowed to express protein for 24 hours followed by addition of individual compounds or the vehicle (DMSO). 24 hours later the cells were harvested, and the luciferase assay and GFP assay were performed using corresponding assay kits according to the manufacturer's instructions (Promega).
# [2] = molecular target: T1, HDAC3 (Homo sapiens, UniProt O15379); assay: GDF11 reporter assay in HeLa cells; type: cell-based; details: relative to CS055 at 3 μM
# T1 construct: endogenous in cells; host or cells: HeLa
# Protocol: as §1
# [3] = test system: HDAC4/5; assay: MEF2 reporter assay in HeLa cells; type: cell-based, human; details: relative to CS055 at 3 μM
# Protocol: as §1
# [4] = molecular target: T2, HDAC7 (Homo sapiens, UniProt Q8WUI4); assay: Nur77 reporter assay in HeLa cells; type: cell-based; details: relative to CS055 at 3 μM
# T2 construct: endogenous in cells; host or cells: HeLa
# T2 sequence (Q8WUI4 1-952): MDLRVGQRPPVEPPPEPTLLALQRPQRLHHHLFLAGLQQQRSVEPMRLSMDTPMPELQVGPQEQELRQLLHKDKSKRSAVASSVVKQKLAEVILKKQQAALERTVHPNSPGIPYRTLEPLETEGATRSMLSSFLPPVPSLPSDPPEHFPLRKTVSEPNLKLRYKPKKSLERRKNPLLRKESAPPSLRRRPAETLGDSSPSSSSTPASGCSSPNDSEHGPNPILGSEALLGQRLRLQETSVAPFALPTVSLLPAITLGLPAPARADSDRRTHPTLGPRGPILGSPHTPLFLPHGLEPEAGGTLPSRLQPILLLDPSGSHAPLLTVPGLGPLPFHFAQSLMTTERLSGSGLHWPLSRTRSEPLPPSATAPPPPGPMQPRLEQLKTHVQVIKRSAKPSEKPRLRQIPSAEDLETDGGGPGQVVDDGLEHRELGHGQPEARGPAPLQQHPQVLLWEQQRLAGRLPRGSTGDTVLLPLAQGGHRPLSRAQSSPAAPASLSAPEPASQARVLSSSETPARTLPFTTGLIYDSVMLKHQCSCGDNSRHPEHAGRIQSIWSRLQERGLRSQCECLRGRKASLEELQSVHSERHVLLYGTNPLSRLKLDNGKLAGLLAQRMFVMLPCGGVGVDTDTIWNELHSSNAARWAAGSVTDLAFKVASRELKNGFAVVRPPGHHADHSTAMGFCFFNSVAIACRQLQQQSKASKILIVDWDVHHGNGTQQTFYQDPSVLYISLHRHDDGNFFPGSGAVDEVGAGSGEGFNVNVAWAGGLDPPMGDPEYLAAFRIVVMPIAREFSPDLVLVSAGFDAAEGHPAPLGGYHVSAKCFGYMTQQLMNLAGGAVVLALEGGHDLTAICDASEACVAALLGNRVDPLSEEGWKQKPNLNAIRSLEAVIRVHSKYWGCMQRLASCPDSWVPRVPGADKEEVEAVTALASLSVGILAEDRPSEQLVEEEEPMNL
# Protocol: as §1
# [5] = test system: HL60; assay: Tumor cell proliferation (MTS), HL60; type: cell-based; details: Homo sapiens, HL-60, HL60, 72 hours
# Protocol: (§2) Measurement of in vivo cell proliferation:
# (§3) Tumor cells were trypsinized and plated into 96-well plates at 3,000 per well and incubated in complete medium with 10% FBS for 24 hours. Compounds were added over a final concentration range of 100 μmol/L to 100 nmol/L in 0.1% DMSO and incubated for 72 hours in complete medium. The effects on proliferation were determined by addition of MTS reagent (Promega) according to the instruction, incubation for 2 hours at 37° C. in CO2 incubator, and record the absorbance at 490 nm using an ELISA plate reader.
# [6] = test system: Hut-78; assay: Tumor cell proliferation (MTS), Hut-78; type: cell-based; details: Homo sapiens, HuT78, Hut-78, 72 hours
# Protocol: as §2, §3
# [7] = test system: Raji; assay: Tumor cell proliferation (MTS), Raji; type: cell-based; details: Homo sapiens, 72 hours
# Protocol: as §2, §3
# [8] = test system: Jurkat; assay: Tumor cell proliferation (MTS), Jurkat; type: cell-based; details: Homo sapiens, 72 hours
# Protocol: as §2, §3
# [9] = test system: U937; assay: Tumor cell proliferation (MTS), U937; type: cell-based; details: Homo sapiens, U-937, U937, 72 hours
# Protocol: as §2, §3
# [10] = test system: Ramos; assay: Tumor cell proliferation (MTS), Ramos; type: cell-based; details: Homo sapiens, 72 hours
# Protocol: as §2, §3
# [11] = test system: A549; assay: Tumor cell proliferation (MTS), A549; type: cell-based; details: Homo sapiens, A549, 72 hours
# Protocol: as §2, §3
# [12] = test system: HeLa; assay: Tumor cell proliferation (MTS), HeLa; type: cell-based; details: Homo sapiens, 72 hours
# Protocol: as §2, §3
# [13] = test system: Bel-7402; assay: Tumor cell proliferation (MTS), Bel-7402; type: cell-based; details: Homo sapiens, Bel-7402, 72 hours
# Protocol: as §2, §3
# [14] = test system: MCF7; assay: Tumor cell proliferation (MTS), MCF7; type: cell-based; details: Homo sapiens, MCF7, 72 hours
# Protocol: as §2, §3
# [15] = test system: MDA-MB-231; assay: Tumor cell proliferation (MTS), MDA-MB-231; type: cell-based; details: Homo sapiens, MDA-MB-231, 72 hours
# Protocol: as §2, §3
# [16] = test system: HCT-8; assay: Tumor cell proliferation (MTS), HCT-8; type: cell-based; details: Homo sapiens, HCT-8, 72 hours
# Protocol: as §2, §3
# T1 sequence (O15379 whole entry): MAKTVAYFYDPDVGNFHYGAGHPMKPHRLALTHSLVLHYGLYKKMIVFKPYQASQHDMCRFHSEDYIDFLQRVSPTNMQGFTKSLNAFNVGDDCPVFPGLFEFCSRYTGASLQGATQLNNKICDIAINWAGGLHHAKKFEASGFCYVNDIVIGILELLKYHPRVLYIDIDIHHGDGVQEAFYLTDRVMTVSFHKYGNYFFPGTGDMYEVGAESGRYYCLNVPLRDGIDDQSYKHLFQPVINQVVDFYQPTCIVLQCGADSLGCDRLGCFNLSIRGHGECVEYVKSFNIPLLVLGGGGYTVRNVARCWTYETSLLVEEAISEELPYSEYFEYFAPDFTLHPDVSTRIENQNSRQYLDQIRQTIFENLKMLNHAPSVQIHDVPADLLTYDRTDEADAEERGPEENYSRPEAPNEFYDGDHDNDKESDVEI
# T1 sequence (Q9Y618 whole entry partner): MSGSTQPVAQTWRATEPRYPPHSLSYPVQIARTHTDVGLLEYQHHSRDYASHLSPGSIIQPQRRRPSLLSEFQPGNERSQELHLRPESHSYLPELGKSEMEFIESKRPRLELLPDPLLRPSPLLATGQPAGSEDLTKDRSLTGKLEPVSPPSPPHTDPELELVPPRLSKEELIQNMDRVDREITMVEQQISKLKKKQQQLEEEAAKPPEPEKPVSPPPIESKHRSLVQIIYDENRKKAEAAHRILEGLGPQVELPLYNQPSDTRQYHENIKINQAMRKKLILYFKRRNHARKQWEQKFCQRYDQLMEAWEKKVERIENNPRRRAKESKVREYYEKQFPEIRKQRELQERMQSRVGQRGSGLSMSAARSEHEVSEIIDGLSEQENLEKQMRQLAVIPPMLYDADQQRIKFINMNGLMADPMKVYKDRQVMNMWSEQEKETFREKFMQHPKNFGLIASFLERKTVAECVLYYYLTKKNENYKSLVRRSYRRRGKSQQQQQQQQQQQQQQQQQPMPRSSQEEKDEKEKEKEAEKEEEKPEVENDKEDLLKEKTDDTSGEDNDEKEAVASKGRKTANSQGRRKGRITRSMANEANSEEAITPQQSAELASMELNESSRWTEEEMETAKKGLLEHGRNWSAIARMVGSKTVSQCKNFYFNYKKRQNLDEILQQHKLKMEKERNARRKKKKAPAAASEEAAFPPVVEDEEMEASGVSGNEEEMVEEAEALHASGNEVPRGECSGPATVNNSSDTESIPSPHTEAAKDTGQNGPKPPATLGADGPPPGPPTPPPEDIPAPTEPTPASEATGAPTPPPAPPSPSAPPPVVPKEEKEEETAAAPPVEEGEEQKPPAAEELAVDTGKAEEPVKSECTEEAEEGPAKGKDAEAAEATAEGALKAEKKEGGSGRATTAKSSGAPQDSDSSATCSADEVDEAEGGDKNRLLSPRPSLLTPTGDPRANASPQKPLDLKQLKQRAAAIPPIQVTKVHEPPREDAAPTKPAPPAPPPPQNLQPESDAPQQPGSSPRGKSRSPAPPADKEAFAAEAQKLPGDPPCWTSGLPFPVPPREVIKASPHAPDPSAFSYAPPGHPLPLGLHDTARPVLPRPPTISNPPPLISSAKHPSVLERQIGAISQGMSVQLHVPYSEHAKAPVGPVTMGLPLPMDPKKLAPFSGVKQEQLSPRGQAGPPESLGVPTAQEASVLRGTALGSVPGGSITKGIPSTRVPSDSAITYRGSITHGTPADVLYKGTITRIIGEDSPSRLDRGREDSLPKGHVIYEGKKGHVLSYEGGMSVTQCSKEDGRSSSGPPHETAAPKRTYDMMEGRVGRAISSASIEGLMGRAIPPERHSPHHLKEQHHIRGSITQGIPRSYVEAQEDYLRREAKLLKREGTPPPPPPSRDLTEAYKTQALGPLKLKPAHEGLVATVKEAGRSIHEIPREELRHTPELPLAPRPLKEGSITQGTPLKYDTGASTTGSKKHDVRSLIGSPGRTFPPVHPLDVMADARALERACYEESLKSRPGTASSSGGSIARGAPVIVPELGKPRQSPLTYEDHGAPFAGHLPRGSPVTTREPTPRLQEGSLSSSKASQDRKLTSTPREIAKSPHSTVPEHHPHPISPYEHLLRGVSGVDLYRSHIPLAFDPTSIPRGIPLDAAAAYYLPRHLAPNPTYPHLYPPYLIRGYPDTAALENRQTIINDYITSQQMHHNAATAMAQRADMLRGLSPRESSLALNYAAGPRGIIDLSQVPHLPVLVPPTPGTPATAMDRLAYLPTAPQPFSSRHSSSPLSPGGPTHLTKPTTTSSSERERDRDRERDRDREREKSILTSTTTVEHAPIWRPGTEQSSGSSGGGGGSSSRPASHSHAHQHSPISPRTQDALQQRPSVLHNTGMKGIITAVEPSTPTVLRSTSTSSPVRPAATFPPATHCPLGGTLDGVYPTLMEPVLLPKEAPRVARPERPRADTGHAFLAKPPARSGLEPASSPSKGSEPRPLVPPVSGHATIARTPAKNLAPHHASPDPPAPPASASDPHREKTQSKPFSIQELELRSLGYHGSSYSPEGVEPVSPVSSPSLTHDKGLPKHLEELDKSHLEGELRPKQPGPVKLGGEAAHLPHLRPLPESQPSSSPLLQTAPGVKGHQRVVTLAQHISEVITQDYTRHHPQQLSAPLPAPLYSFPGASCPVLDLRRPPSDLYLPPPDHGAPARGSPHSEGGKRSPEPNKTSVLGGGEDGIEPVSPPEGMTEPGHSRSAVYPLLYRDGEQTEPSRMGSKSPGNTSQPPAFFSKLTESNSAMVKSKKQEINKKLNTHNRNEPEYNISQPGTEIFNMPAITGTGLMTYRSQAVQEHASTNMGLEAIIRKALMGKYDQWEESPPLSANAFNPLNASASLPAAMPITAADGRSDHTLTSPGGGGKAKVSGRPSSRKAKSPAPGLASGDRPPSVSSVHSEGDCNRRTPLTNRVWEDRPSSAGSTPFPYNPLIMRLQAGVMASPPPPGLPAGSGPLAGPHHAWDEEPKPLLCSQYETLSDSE
GI50 [5],GI50 [6],GI50 [7],GI50 [8],GI50 [9],GI50 [10],GI50 [11],GI50 [12],GI50 [13],GI50 [14],GI50 [15],GI50 [16],SMILES,Class I HDAC (P21 reporter assay) % Max Resp of CS055 at 3 μM [1],HDAC3 (GDF11 reporter assay) % Max Resp of CS055 at 3 μM [2],HDAC4/5 (MEF2 reporter assay) % Max Resp of CS055 at 3 μM [3],HDAC7 (Nur77 reporter assay) % Max Resp of CS055 at 3 μM [4]
,,,,,,,,,,,,"O=C(CCCCCCC(=O)Nc1ccccc1)NO [SAHA, suberoylanilide hydroxamic acid, reference compound]",304.1%,317.9%,427.3%,514.9%
1.28 µM,12.5 µM,4.15 µM,16.9 µM,4.06 µM,1.51 µM,13.8 µM,30.8 µM,9.73 µM,9.51 µM,4.25 µM,5.35 µM,"CNC(=O)c1cc(Oc2ccc(NC(=O)Nc3ccc(Cl)c(C(F)(F)F)c3)cc2)ccn1 [Sorafinib, reference compound]",,,,
1.73 µM,4.06 µM,5.47 µM,7.05 µM,8.28 µM,12 µM,14.7 µM,9.29 µM,13.1 µM,7.55 µM,4.66 µM,12.2 µM,"CCN(CC)CCNC(=O)c1c(C)[nH]c(/C=C2\C(=O)Nc3ccc(F)cc32)c1C [Sutent, reference compound]",,,,
